Test results published in article PMC3873281, “Discovery and Preclinical Characterization of Novel Small Molecule TRK and ROS1 Tyrosine Kinase Inhibitors for the Treatment of Cancer and Inflammation” (PLoS ONE, 2013).
pIC50: −log10 of the molar value. Like-named read-outs stand apart in the source and are kept apart here.

Legend:
[1] = test system: NIH3T3:FIG-ROS1 (S) cells; assay: NIH3T3:FIG-ROS1 (S) cell proliferation, SRB assay; assay type: cell-based
Protocol: (§1) Adherent cells were plated at 10,000 cells per well in 96-well plates in respective medium. […] For cell cycle analysis, cells were plated in 6 well plates and treated for the indicated time points. Cells were fixed, stained with propidium iodide, and distribution in different phases of cell cycle was evaluated using flow cytometry.
(§2) Protein was extracted and immunoblotted with phospho-ROS1 and total ROS1 antibodies. C. […] Ba/F3 cells stably transfected with vector or FIG-ROS1 were plated in equal numbers and growth of the cells after 3 days was measured by SRB assay (F).

[2] = test system: HCC78 lung cancer cells; assay: HCC78 lung carcinoma cell growth, SRB assay; assay type: cell-based; conditions: Homo sapiens, HCC78, 144 h, read-out: IC50, proliferation of HCC78 cells
Protocol: as §1, §2

[3] = test system: FIG-ROS1; assay: Phosphorylation of ROS1 fused to FIG in NIH3T3 cells, Western blotting; assay type: cell-based; conditions: 3 days
Protocol: as §2

[4] = test system: NIH3T3:FIG-ROS1 (S) xenograft
Protocol: Xenograft experiments were performed in nude mice as previously described. Briefly, a mixture of cells suspended in 0.0375 mL RPMI+10% FBS and 0.0625 mL Matrigel was injected s.c. into the hind left flank of each mouse.
Tumor volumes (A) and body weight (C) were measured biweekly. After sacrifice, tumor weights (B) were recorded and the amount of drug in serum and tumors were quantified using LC-MS/MS (D). *-significant at p<0.01; **-significant at p<0.001.

[5] = test system: HCC78 cells; assay: Cell cycle analysis of HCC78 cells, flow cytometry; assay type: cell-based; conditions: 1 µM
Protocol: as §1, §2

[6] = test system: MMP-3; assay: PMA- or NGF-induced MMP-3 expression in PC12 cells, realtime PCR; assay type: cell-based
Protocol: RNA was isolated using the Cells-to-Ct kit and realtime PCR was performed using TaqMan primers and probes on the ABI 7900 (Life Technologies). cDNA array experiments were conducted using TaqMan primers and probes on the ABI 7900 PCR machine.
Figure 3 GTx-186 inhibits inflammation in vitro. Cells were serum starved for 2 days, pre-treated with indicated concentrations of GTx-186 for 30 min and treated with growth factors or cytokines for 12–16 hrs. RNA was extracted, cDNA synthesized, and expression of inflammatory genes were measured by realtime PCR using Taqman primer and probes. All experiments were performed in triplicate and repeated at least three times.

[7] = test system: croton oil-induced dermatitis; assay: Croton oil-induced atopic dermatitis; conditions: s.c., twice, 16 hrs and 2 hrs before croton oil
[8] = test system: carrageenan-induced air-pouch inflammation; assay: Carrageenan-induced air pouch inflammation model; assay type: in vivo, Sprague Dawley rats; conditions: GTx-186 40 mg/kg; indomethacin 30 mg/kg s.c.
Protocol: Cytokine arrays were obtained from Ray Biotech (Norcross, GA) and arrays were processed according to manufacturer’s instructions. Briefly, arrays were incubated overnight with equal volume of air pouch exudates, washed, and incubated with secondary antibodies before developing using enhanced chemiluminescence.
Air was injected in the flanks of Sprague Dawley rats four days (20 mL) and two days (10 mL) before injection of carrageenan (1 mL of 2% carrageenan) in the pouch. Six hours after carrageenan administration, animals were sacrificed, 5 mL saline was injected into the pouch, pouch exudates were collected and the number of leukocytes and macrophages infiltrated into the pouch were counted under a microscope.
Figure 5 GTx-186 inhibits carrageenan-induced air-pouch inflammation in rats. A–C. A pouch was created subcutaneously in one flank of rats (n = 3) by injecting 20 ml air four days before and 10 ml air two days before treatment. […] Six hours after carrageenan administration, the animals were sacrificed, 5 ml saline was injected into pouch to flush the pouch fluid and the number of leukocytes and macrophages infiltrated into the pouch were counted under a microscope. TNF-α was measured using an ELISA in the pouch exudates from the experiment in panel B. (C). D. Effect of GTx-186 on inflammatory cytokines in carrageenan-induced air-pouch inflammation was measured in the pouch exudates using a cytokine array. Key cytokines were quantified and expressed as bar graphs on the right. […] 186-GTx-186; Indom-Indomethacin; Dex-Dexamethasone; TNF-Tumor Necrosis Factor; IL-Interleukin; CINC-Cytokine-Induced Neutrophil-Chemoattractant protein.

[9] = daily, GTx-186 20 mg/kg/day i.v., crizotinib 75 mg/kg p.o.

## C[C@@H](Oc1cc(-c2cnn(C3CCNCC3)c2)cnc1N)c1c(Cl)ccc(F)c1Cl [crizotinib]
[1]; 72 h, read-out: IC50, proliferation of NIH3T3:FIG-ROS1 (S), 3 days
  pIC50: 7.62
[1]; read-out: IC50, proliferation of NIH3T3:FIG-ROS1 (S), 3 days
  pIC50: 7.59
[2]
  pIC50: 6.31
[3]
  phosphorylation of ROS1 fused to FIG: extremely effective in inhibiting
[4]; crizotinib 75 mg/kg p.o. daily
  tumor growth inhibition: 90%
[4]; [9]
  tumor growth (tumor volume): significantly reduced
  tumor weight: significantly reduced
[4]; mouse, in vivo
  body weight, visible toxicity: without affecting body weight
[5]
  time of treatment at which cells were arrested in G0/G1 phase: 6 days

## C[C@@H]1C[C@H]2[C@@H]3CCC4=CC(=O)C=C[C@]4(C)[C@@]3(F)[C@@H](O)C[C@]2(C)[C@@]1(O)C(=O)CO [dexamethasone]
[6]
  MMP-3 expression induced by PMA: inhibited
[7]
  expression of inflammatory pathway genes, including NGF, in ear punches: markedly inhibited

## COc1ccc2c(c1)c(CC(=O)O)c(C)n2C(=O)c1ccc(Cl)cc1 [indomethacin]
[8]
  TNF-α levels in pouch exudates after carrageenan (ELISA, cytokine array): effectively inhibited
  carrageenan-induced CINC-1, CINC-2, IL-6, and LIX in pouch exudates (cytokine array): only GTx-186 inhibited
  carrageenan-induced CINC-3, TIMP-1, PDGFa, MMP-8, and MCP-1 in pouch exudates (cytokine array): neither GTx-186 nor indomethacin inhibited
  carrageenan-induced TNF-α, IL-1β, fractalkine, IL-13, and leptin in pouch exudates (cytokine array): inhibited
